Patent US20080038809A1, “ISOLATED LECTIN POLYPEPTIDES CONSISTING OF TRUNCATED […] UDP-GalNAc:POLYPEPTIDE N- ACETYLGALACTOSAMINYLTRANSFERASES” (GLYCOZYM APS, priority 2002, published 2008)
“Also recorded” adds a separate entry of the source.

Legend:
[1] = tested on: MUC1 expression in CHO1d1D/MUC1F-clone2 cells; assay: MUC1 expression in cell lysates by immunoprecipitation, SDS-PAGE and western blot; assay type: cell-based, Chinese hamster (CHO 1d1D cells); human MUC1; settings: 2 mM; for MUC1 expression: cells in GalNAc or Gal and GalNAc; for SDS-PAGE migration of MUC1 (O-glycan extension): cells in Gal and GalNAc
Protocol: FIG. 12 is an SDS-PAGE Western analysis of GalNAcα-benzyl inhibition of MUC1 expression in CHO 1d1D cells stably transfected with a full coding MUC1 construct. […] Cells were further treated with 2 mM GalNAcα-benzyl (lanes 1, 4, 7, 10), 2 mM GlcNAcα-benzyl (lanes 2, 5, 8, 11) or no inhibitor (lanes 3, 6, 9, 12). Cells were washed and lysed at 24 or 48 hours and the lysates subjected to immunoprecipitation with monoclonal antibody HMFG2, which broadly recognize MUC1 glycoforms. Immunoprecipitates were analysed by SDS-PAGE and western blot using HMFG2 antibody to detect MUC1 expression. Lane M indicates molecular markers with assigned mw. Lane C includes a control MUC1 180-mer tandem repeat peptide which has been GalNAc-glycosylated with 3 moles GalNAc per repeat using GalNAc-T2. The sharp bands migrating at 100-200 kd are immunoglobulins indicated by IgG.
FIG. 13 is a SDS-PAGE Western analysis resulting from the same experiment as in FIG. 12, but using a novel monoclonal antibody, 5E5, to visualize MUC1 expression. […] Cells were further treated with 2 mM GalNAcα-benzyl (lanes 1, 4), 2 mM GlcNAcα-benzyl (lanes 2, 5) or no inhibitor (lanes 3, 6). Cells were washed and lysed at 48 hours and the lysates subjected to immunoprecipitation with monoclonal antibody HMFG2, which broadly recognize MUC1 glycoforms. Immunoprecipitates were analysed by SDS-PAGE and western blot using 5E5 antibody, which selectively recognize GalNAc-glycosylated MUC1 expression and show no reactivity with unglycosylated MUC1 peptides. Lanes M and C as described in legend to FIG. 12.
Cells were further treated with 2 mM GalNAcα-benzyl (lanes 1, 4, 7, 10), 2 mM GalNAcβ-benzyl (lanes 2, 5, 8, 11) or 2 mM GlcNAcα-benzyl (lanes 3, 6, 9, 12). Cells were washed and lysed at 36 hours and the lysates subjected to immunoprecipitation with monoclonal antibodies HMFG2 (lanes 1-6) or 5E5 (lanes 7-12). Immunoprecipitates were analysed by SDS-PAGE and western blot using HMFG2 antibody. Lanes M and C as described in legend to FIG. 7.
FIG. 15 is an SDS-PAGE Western analysis resulting from the same experiment as FIG. 14, except that expression is visualized by the monoclonal antibody 5E5. […] Cells were further treated with 2 mM GalNAcα-benzyl (lanes 1, 4, 7, 10), 2 mM GalNAcβ-benzyl (lanes 2, 5, 8, 11) or 2 mM GlcNAcα-benzyl (lanes 3, 6, 9, 12). Cells were washed and lysed at 36 hours and the lysates subjected to immunoprecipitation with monoclonal antibodies HMFG2 (lanes 1-6) or 5E5 (lanes 7-12). Immunoprecipitates were analysed by SDS-PAGE and western blot using 5E5 antibody. Lanes M and C as described in legend to FIG. 12.
We therefore investigated the effect of treatment with GalNAcα-benzyl of CHO1d1D/MUC1F-clone2 cells grown in the presence of GalNAc. CHO1d1D/MUC1F-clone2 cells were seeded in 6 well plates at a density of 0.2×10^6 per well and were grown for 6 hours in Hams F12 medium with serum until approximately 30% subconfluent. […] After 18 hours, the medium was replaced with fresh Optimem containing the sugars and benzyl derivatives as above and grown for 12-48 hours. Initially we analyzed surface expression of MUC1 by immunocytology. Cells were washed once in PBS-CMF (phosphate buffered saline Calcium and Magnesium free) after carefully removing the medium from the wells and subsequently fixed in 2 ml 3% paraformaldehyde at 25° C. for 20 min followed by three washes with PBS-CMF 3 times. Free aldehyde groups were quenched by incubating in 2 mL 50 mM Ammonium Chloride in PBS-CMF for 10 min, followed by three washes with PBS-CMF and three washes with 5 min incubations each with PBS-CMF containing 0.2% Fish Skin Gelatin (Sigma). Immunostaining of cells was performed by incubation with monoclonal antibodies for 40 min at 25° C., followed by three washes with PBS-CMF and three washes of 5 min each with PBS-CMF containing 0.2% Fish Skin Gelatin. […]

[2] = tested on: MUC5AC secretion, HT29MTX cells; assay: MUC5AC secretion from HT29MTX cells by SDS-PAGE Western blotting of media; assay type: cell-based, human; settings: 5 mM, 14 days, LUM5-1 antibody
Protocol: FIG. 17 illustrates SDS-PAGE Western analysis of MUC5AC secretion from HT29MTX cells using polyclonal anti-MUC5AC antibody LUM5-1. In order to evaluate GalNAcβ-benzyl as an inhibitor of mucin glycosylation and secretion we used the HT-29 metotrexate (MTX) cultured colon carcinoma cells of mucin secreting phenotype. HT-29 MTX cells have a goblet cell like phenotype with constitutive production of MUC5AC. Cells were continuously grown up to 21 days in the presence of 5 mM GalNAcα-benzyl, 5 mM GalNAcβ-benzyl, 5 mM GlcNAcα-benzyl and without inhibitor. […] In striking contrast, MUC5AC was not detected in the media from cells treated with GalNAcα-benzyl (Lane 3) or GalNAcβ-benzyl (Lane 4). Results shown are from media collected at 14 days.
In order to evaluate GalNAcβ-benzyl as an inhibitor of mucin glycosylation and secretion we used the cultured colon carcinoma cells of mucin secreting phenotypes: HT-29 metotrexate (MTX) cells selected from the HT-29 cell line by culture in the presence of MTX (kind gift from G. Huet, France). The HT-29 MTX cells were selected to yield a goblet cell like phenotype with constitutive production of MUC5AC. In order to ensure proper goblet cell differentiation the HT29MTX cell line were continuously grown up to 21 days in the presence of 5 mM GalNAcα-benzyl, 5 mM GalNAcβ-benzyl, 5 mM GlcNAcα-benzyl and without inhibitor using culture conditions as described in Hennebicq-Reig et al. (Permanent exposure of mucin-secreting HT-29 cells to benzyl-N-acetyl-alpha-D-galactosaminide induces abnormal O-glycosylation of mucins and inhibits constitutive and stimulated MUC5AC secretion. Biochem J. 1998; 334:283-95). […] Furthermore the viscosity of the media from cells with and without inhibitor was evaluated using viscosity micro-measurement.

[3] = 36 hours, 5E5 blot, cells grown in GalNAc

Row | SMILES | reduction in MUC1 expression [1, 3] | MUC1 expression ([1]; 48 hours, 5E5 blot) | MUC1 expression ([1]; 48 hours, HMFG2 blot) | SDS-PAGE migration of MUC1 (O-glycan extension) ([1]; 48 hours) | MUC5AC in media [2] | reduction in MUC1 expression ([1]; 36 hours, HMFG2 blot) | SDS-PAGE migration of MUC1 (O-glycan extension) ([1]; 36 hours)
1 | CC(=O)N[C@H]1[C@@H](OCc2ccccc2)O[C@H](CO)[C@H](O)[C@@H]1O [GalNAcα-benzyl, benzyl-N-acetyl-alpha-D-galactosaminide] | strong inhibition of MUC1 expression | significant reduction in MUC1 expression | significant reduction in MUC1 expression | marked shift in migration to lower molecular weight migrating species | diminished secretion of MUC5AC |  | 
2 | CC(=O)N[C@H]1[C@H](OCc2ccccc2)O[C@H](CO)[C@H](O)[C@@H]1O [GalNAcβ-benzyl] | strong inhibition of MUC1 expression; also recorded: same or better reduction in MUC1 expression as treatment with GalNAcα-benzyl |  |  |  | diminished secretion of MUC5AC | same or better reduction in MUC1 expression as treatment with GalNAcα-benzyl | no change in the migration of MUC1
3 | CC(=O)N[C@H]1[C@@H](OCc2ccccc2)O[C@H](CO)[C@@H](O)[C@@H]1O [GlcNAcα-benzyl] |  |  | no effect on MUC1 expression and O-glycosylation compared to untreated cells |  | detected MUC5AC in media |  | 
